The values that follow come from ChEMBL document CHEMBL5390231, “Development of small molecule inhibitors targeting RNA helicase DHX33 as anti-cancer agents” (Bioorg Med Chem Lett, 2023).

SMILES strings stand for the structures. Some results are limits rather than exact numbers.

Data set [1] is described as follows: Microsomal stability in human liver microsome assessed as intrinsic clearance. The conditions noted are these: liver microsomes, read-out: CLH. The format is ADME. In general terms: Microsomes from liver hold many membrane-bound enzymes, among them those of drug oxidation.
Data set [2] concerns the target T1, Nucleolar RNA helicase 2 (Homo sapiens, UniProt Q9NR30).
T1 sequence (Q9NR30 whole entry): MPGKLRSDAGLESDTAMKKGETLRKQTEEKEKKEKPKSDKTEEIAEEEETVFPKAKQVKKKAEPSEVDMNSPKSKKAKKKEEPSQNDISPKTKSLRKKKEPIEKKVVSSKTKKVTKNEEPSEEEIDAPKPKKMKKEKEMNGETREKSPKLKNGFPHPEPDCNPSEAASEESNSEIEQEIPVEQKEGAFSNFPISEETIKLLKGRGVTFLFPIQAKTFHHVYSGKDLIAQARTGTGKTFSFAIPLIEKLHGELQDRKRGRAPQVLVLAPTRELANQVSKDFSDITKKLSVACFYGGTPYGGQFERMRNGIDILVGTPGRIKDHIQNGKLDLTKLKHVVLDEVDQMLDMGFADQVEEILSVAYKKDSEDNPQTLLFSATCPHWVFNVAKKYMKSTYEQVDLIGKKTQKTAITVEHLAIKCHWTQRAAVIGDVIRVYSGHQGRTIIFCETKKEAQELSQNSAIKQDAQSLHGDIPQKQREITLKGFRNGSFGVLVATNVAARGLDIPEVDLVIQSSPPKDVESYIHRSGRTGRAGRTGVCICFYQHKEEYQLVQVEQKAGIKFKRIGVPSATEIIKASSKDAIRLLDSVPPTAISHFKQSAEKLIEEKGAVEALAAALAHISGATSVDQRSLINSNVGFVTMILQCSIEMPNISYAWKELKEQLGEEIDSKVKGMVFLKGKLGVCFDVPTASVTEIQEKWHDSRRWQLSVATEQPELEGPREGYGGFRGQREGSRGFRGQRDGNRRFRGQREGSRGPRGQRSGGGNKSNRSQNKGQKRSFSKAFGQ
Put plainly: Inhibition of N-terminal thioredoxin-tagged human recombinant DDX21 transformed in Escherichia coli BL21(DE3)pLysS cells.

Data set [3] deals with T2, Probable ATP-dependent RNA helicase DHX35 (Homo sapiens, UniProt Q9H5Z1).
T2 sequence (Q9H5Z1 whole entry): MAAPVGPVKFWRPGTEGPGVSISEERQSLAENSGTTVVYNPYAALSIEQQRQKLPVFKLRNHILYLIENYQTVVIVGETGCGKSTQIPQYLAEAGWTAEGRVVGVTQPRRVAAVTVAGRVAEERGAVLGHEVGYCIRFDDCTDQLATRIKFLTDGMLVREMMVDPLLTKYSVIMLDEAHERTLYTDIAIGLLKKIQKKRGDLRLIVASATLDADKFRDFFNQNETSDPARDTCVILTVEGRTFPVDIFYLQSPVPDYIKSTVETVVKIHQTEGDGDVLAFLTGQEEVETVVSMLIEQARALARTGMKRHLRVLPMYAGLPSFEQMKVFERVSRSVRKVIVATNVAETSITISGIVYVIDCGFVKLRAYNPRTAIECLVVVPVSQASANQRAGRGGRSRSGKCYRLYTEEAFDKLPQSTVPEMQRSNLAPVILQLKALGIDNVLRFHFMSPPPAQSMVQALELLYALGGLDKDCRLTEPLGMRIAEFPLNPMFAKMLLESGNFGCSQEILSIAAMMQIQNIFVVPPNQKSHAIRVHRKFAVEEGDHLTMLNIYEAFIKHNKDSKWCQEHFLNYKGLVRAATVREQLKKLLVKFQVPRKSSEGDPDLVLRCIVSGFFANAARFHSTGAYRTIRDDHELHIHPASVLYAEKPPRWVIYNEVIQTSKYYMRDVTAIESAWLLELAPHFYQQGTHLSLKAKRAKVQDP
Put plainly: Inhibition of N-terminal thioredoxin-tagged human recombinant DHX35 transformed in Escherichia coli BL21(DE3)pLysS cells.

The target of data set [4] is T3, Probable ATP-dependent RNA helicase DDX59 (Homo sapiens, UniProt Q5T1V6).
T3 sequence (Q5T1V6 whole entry): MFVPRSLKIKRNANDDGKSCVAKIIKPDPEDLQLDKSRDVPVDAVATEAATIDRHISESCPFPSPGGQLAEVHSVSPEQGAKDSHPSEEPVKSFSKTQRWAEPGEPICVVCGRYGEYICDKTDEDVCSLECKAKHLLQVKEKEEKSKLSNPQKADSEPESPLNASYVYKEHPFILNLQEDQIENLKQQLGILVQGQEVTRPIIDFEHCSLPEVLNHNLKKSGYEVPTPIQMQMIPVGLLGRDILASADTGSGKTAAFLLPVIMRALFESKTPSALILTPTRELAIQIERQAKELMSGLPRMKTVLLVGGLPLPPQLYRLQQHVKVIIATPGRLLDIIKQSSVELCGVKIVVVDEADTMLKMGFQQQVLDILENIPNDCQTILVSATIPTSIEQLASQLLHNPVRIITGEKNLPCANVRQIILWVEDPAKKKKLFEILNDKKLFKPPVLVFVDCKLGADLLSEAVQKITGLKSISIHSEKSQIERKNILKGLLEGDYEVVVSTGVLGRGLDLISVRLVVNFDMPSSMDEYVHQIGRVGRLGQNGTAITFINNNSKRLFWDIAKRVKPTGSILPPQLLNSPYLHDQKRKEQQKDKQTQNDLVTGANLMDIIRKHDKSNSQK
Put plainly: Inhibition of C-terminal 6xHis-tagged human recombinant DDX59 transformed in Escherichia coli BL21(DE3)pLysS cells.

Data set [5] addresses T4, Probable ATP-dependent RNA helicase DHX40 (Homo sapiens, UniProt Q8IX18).
T4 sequence (Q8IX18 whole entry): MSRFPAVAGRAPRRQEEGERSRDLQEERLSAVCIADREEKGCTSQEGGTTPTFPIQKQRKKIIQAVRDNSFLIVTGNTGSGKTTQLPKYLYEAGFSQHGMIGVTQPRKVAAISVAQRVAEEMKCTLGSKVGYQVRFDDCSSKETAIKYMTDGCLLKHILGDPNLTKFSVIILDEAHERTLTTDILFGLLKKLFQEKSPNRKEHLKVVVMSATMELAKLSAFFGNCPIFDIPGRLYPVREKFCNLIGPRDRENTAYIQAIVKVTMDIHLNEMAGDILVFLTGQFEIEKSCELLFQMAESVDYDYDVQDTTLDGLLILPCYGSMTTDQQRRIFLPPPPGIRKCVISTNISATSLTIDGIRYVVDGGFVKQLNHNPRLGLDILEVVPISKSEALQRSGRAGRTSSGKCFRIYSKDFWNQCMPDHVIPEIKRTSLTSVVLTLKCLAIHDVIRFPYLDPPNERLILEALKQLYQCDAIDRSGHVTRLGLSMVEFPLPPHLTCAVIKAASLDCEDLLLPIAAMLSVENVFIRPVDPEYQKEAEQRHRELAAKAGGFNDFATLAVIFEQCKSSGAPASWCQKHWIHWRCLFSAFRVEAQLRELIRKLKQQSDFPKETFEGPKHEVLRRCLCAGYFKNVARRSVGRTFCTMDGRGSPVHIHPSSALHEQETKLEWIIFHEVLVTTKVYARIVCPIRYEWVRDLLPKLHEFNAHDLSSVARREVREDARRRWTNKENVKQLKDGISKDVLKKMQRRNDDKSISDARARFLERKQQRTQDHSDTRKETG
The experiment in a line: Inhibition of N-terminal thioredoxin-tagged human recombinant DHX40 transformed in Escherichia coli BL21(DE3)pLysS cells.

Usually IC50 stands for the concentration that gives 50% inhibition. As for `COc1ccc2nc(NC(=O)c3cc(C)n(-c4sc(C)cc4C#N)c3C)[nH]c2c1`, the CLint scaled in data set [1] amounted to 22.4 mL/min/kg. In addition, the IC50 in data set [2] is greater than 100 µM; in data set [3] it was 117 µM; in data set [4], greater than 100 µM; in data set [5], greater than 100 µM.
